# Legend:
# Mu-type opioid receptor = Mu-type opioid receptor (Rattus norvegicus, UniProt P33535); experiment: Displacement of [3H]DAMGO from mu opioid receptor in rat brain homogenate; assay type: tissue-based
# [1] = biological target: Kappa-type opioid receptor (Homo sapiens, UniProt P41145); experiment: Displacement of [3H]U-69593 from kappa opioid receptor
# [2] = biological target: Delta-type opioid receptor (Homo sapiens, UniProt P41143); experiment: Displacement of [3H]DPDE from delta opioid receptor
# Sequence of Delta-type opioid receptor (P41143 whole entry): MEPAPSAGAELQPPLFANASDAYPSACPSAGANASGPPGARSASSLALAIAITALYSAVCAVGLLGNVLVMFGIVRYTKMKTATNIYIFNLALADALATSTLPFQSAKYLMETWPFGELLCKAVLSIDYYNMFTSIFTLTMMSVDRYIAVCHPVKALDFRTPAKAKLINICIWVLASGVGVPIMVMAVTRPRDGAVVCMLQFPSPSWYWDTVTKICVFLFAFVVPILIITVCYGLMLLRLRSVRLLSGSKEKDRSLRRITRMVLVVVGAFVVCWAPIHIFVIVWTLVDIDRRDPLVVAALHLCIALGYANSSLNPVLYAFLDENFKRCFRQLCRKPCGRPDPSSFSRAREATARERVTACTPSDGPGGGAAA
# Sequence of Mu-type opioid receptor (P33535 whole entry): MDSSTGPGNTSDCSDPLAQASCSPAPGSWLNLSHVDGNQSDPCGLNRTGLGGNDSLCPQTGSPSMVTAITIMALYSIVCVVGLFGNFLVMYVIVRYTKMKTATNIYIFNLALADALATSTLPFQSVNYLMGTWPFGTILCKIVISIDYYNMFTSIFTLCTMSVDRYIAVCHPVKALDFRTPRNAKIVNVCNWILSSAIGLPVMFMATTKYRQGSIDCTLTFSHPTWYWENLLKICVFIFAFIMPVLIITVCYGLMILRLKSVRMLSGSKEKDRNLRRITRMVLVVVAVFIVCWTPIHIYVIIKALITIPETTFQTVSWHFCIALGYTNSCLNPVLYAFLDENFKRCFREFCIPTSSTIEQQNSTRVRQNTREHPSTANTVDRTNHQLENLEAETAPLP
# Sequence of Kappa-type opioid receptor (P41145 whole entry): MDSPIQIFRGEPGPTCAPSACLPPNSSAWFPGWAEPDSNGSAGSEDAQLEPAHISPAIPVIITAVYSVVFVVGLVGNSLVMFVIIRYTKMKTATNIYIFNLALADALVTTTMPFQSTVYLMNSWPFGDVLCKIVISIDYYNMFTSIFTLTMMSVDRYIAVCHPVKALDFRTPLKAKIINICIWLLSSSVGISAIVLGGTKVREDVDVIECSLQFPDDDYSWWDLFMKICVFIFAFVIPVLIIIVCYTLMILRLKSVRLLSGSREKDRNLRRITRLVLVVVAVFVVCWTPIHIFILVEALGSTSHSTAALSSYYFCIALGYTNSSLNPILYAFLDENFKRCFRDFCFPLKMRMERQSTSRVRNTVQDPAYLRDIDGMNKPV
SMILES,IC50 (Mu-type opioid receptor),IC50 [1],IC50 [2]
CCN[C@H](CN[C@H](CN[C@@H](Cc1ccc(O)cc1)CN1CCC[C@H]1CN[C@H](CN[C@H](CN)CCSC)Cc1ccc(O)cc1)Cc1ccc(O)cc1)Cc1ccc(O)cc1,113 nM,–,–
CCN[C@H](CN[C@H](CN[C@@H](Cc1ccc(O)cc1)CN1CCC[C@H]1CN[C@@H](CN[C@@H](CN)CO)[C@@H](C)O)Cc1ccc(O)cc1)Cc1ccc(O)cc1,32 nM,–,–
CCN[C@H](CN[C@H](CN[C@@H](Cc1ccc(O)cc1)CN1CCC[C@H]1CN[C@@H](CN[C@H](CN)CCSC)[C@@H](C)O)Cc1ccc(O)cc1)Cc1ccc(O)cc1,112 nM,–,–
CCN[C@H](CN[C@H](CN[C@@H](Cc1ccc(O)cc1)CN1CCC[C@H]1CN[C@@H](CN[C@H](CN)Cc1ccc(O)cc1)[C@@H](C)O)Cc1ccc(O)cc1)Cc1ccc(O)cc1,61 nM,–,–
CCN[C@H](CN[C@H](CN[C@@H](Cc1ccccc1)CN1CCC[C@H]1CN[C@H](CN[C@H](CN)CCSC)Cc1ccc(O)cc1)Cc1ccc(O)cc1)Cc1ccc(O)cc1,34 nM,–,–
CCN[C@H](CN[C@H](CN[C@@H](Cc1ccccc1)CN1CCC[C@H]1CN[C@H](CN[C@H](CN)CO)Cc1ccc(O)cc1)Cc1ccc(O)cc1)Cc1ccc(O)cc1 (stereo in doubt; 5),19 nM,–,–
CCN[C@H](CN[C@H](CN[C@H](CN[C@H](CN[C@@H](CN[C@H](CN)CCSC)[C@@H](C)O)Cc1ccccc1)Cc1ccc(O)cc1)Cc1ccc(O)cc1)Cc1ccc(O)cc1,181 nM,–,–
CCN[C@H](CN[C@H](CN[C@H](CN[C@H](CN[C@H](CN[C@H](CN)Cc1ccc(O)cc1)Cc1ccc(O)cc1)Cc1ccccc1)Cc1ccc(O)cc1)Cc1ccc(O)cc1)Cc1ccc(O)cc1,261 nM,–,–
CCN[C@H](CN[C@H](CN[C@@H](Cc1ccc(O)cc1)CN1CCC[C@H]1CN[C@H](CN[C@H](CN)Cc1ccc(O)cc1)Cc1ccc(O)cc1)Cc1ccc(O)cc1)Cc1ccc(O)cc1,87 nM,–,–
CN(C)[C@@H](Cc1ccc(O)cc1)CN(C)[C@H](CNCc1ccccc1)Cc1ccc(O)cc1,38 nM,2360 nM,8260 nM
CCN[C@H](CN[C@H](CN[C@@H](Cc1ccccc1)CN1CCC[C@H]1CN[C@@H](CN1CCC[C@H]1CN)[C@@H](C)O)Cc1ccc(O)cc1)Cc1ccc(O)cc1,15 nM,–,–
CCN[C@H](CN[C@H](CN)Cc1ccc(O)cc1)Cc1ccc(O)cc1,344 nM,–,–
CCN[C@H](CN[C@H](CN[C@H](CN[C@H](CN[C@@H](CN[C@H](CN)CCSC)[C@@H](C)O)Cc1ccccc1)Cc1ccccc1)Cc1ccc(O)cc1)Cc1ccc(O)cc1,115 nM,–,–
CN(C)[C@H](CN[C@H](CN)Cc1ccc(O)cc1)Cc1ccc(O)cc1,262 nM,22600 nM,17900 nM
CCN[C@H](CN[C@H](CN[C@@H](Cc1ccccc1)CN1CCC[C@H]1CN[C@H](CN)Cc1ccc(O)cc1)Cc1ccc(O)cc1)Cc1ccc(O)cc1,24 nM,–,–
CCN[C@H](CN[C@H](CN[C@@H](Cc1ccc(O)cc1)CN1CCC[C@H]1CN[C@@H](Cc1ccc(O)cc1)CN1CCC[C@H]1CN)Cc1ccc(O)cc1)Cc1ccc(O)cc1,79 nM,–,–
CCN[C@H](CN[C@H](CN[C@H](CN[C@H](CN[C@@H](Cc1ccc(O)cc1)CN1CCC[C@H]1CN)Cc1ccccc1)Cc1ccc(O)cc1)Cc1ccc(O)cc1)Cc1ccc(O)cc1,148 nM,–,–
CCN[C@H](CN[C@H](CN[C@H](CN[C@H](CN[C@@H](CN1CCC[C@H]1CN)[C@@H](C)O)Cc1ccccc1)Cc1ccc(O)cc1)Cc1ccc(O)cc1)Cc1ccc(O)cc1,155 nM,–,–
CCN[C@H](CN[C@H](CN[C@H](CN[C@H](CN[C@@H](CN[C@@H](CN)CO)[C@@H](C)O)Cc1ccccc1)Cc1ccc(O)cc1)Cc1ccc(O)cc1)Cc1ccc(O)cc1,163 nM,–,–
CCN[C@H](CN[C@H](CN[C@H](CN[C@H](CN[C@H](CN)Cc1ccc(O)cc1)Cc1ccc(O)cc1)Cc1ccc(O)cc1)Cc1ccc(O)cc1)Cc1ccc(O)cc1,146 nM,–,–
CN(C[C@@H](N)Cc1ccc(O)cc1)[C@H](CNCc1ccccc1)Cc1ccc(O)cc1,10 nM,4140 nM,10200 nM
CCN[C@H](CN[C@H](CN[C@H](CN)Cc1ccccc1)Cc1ccc(O)cc1)Cc1ccc(O)cc1,47 nM,–,–
CCN[C@H](CN[C@H](CN[C@H](CN[C@H](CN[C@@H](CN[C@H](CN)Cc1ccc(O)cc1)[C@@H](C)O)Cc1ccccc1)Cc1ccc(O)cc1)Cc1ccc(O)cc1)Cc1ccc(O)cc1,200 nM,–,–
CCN[C@H](CN[C@H](CN[C@@H](Cc1ccccc1)CN1CCC[C@H]1CN[C@@H](CN[C@@H](CN)CO)[C@@H](C)O)Cc1ccc(O)cc1)Cc1ccc(O)cc1,19 nM,–,–
CCN[C@H](CN[C@H](CN[C@H](CN[C@H](CN[C@H](CN[C@H](CN)Cc1ccccc1)Cc1ccc(O)cc1)Cc1ccccc1)Cc1ccc(O)cc1)Cc1ccc(O)cc1)Cc1ccc(O)cc1,258 nM,–,–
CNC[C@H](Cc1ccc(O)cc1)N(Cc1ccccc1)C[C@H](Cc1ccc(O)cc1)N(C)C,1280 nM,10600 nM,56700 nM
CCN[C@H](CN[C@H](CN[C@@H](Cc1ccccc1)CN1CCC[C@H]1CN[C@@H](CN[C@H](CN)Cc1ccccc1)[C@@H](C)O)Cc1ccc(O)cc1)Cc1ccc(O)cc1,19 nM,–,–

SMILES,IC50 (Mu-type opioid receptor),IC50 [1],IC50 [2]
CCN[C@H](CN[C@H](CN[C@H](CN[C@H](CN[C@H](CN[C@@H](CN)CO)Cc1ccc(O)cc1)Cc1ccccc1)Cc1ccccc1)Cc1ccc(O)cc1)Cc1ccc(O)cc1,66 nM,–,–
CNC[C@H](Cc1ccc(O)cc1)N(Cc1ccccc1)C[C@H](Cc1ccc(O)cc1)NC,1210 nM,11100 nM,10200 nM
CCN[C@H](CN[C@H](CN[C@@H](Cc1ccccc1)CN1CCC[C@H]1CN[C@H](CN[C@H](CN)CO)Cc1ccc(O)cc1)Cc1ccc(O)cc1)Cc1ccc(O)cc1 (stereo in doubt),67 nM,–,–
CCN[C@H](CN[C@H](CN[C@@H](Cc1ccccc1)CN1CCC[C@H]1CN[C@@H](Cc1ccc(O)cc1)CN1CCC[C@H]1CN)Cc1ccc(O)cc1)Cc1ccc(O)cc1,18 nM,–,–
CCN[C@H](CN[C@H](CN[C@@H](Cc1ccc(O)cc1)CN1CCC[C@H]1CN)Cc1ccc(O)cc1)Cc1ccc(O)cc1,13 nM,–,–
CCN[C@H](CN[C@H](CN[C@H](CN[C@H](CN[C@@H](CN[C@H](CN)Cc1ccc(O)cc1)[C@@H](C)O)Cc1ccccc1)Cc1ccccc1)Cc1ccc(O)cc1)Cc1ccc(O)cc1,78 nM,–,–
CCN[C@H](CN[C@H](CN[C@H](CN[C@H](CN)Cc1ccc(O)cc1)Cc1ccc(O)cc1)Cc1ccc(O)cc1)Cc1ccc(O)cc1,96 nM,–,–
CCN[C@H](CN[C@H](CN[C@H](CN[C@H](CN[C@@H](CN1CCC[C@H]1CN)[C@@H](C)O)Cc1ccccc1)Cc1ccccc1)Cc1ccc(O)cc1)Cc1ccc(O)cc1,82 nM,–,–
CCN[C@H](CN[C@H](CN[C@@H](Cc1ccc(O)cc1)CN1CCC[C@H]1CN[C@@H](CN[C@H](CN)Cc1ccccc1)[C@@H](C)O)Cc1ccc(O)cc1)Cc1ccc(O)cc1,128 nM,–,–
CCN[C@H](CN[C@H](CN[C@H](CN)Cc1ccc(O)cc1)Cc1ccc(O)cc1)Cc1ccc(O)cc1,138 nM,–,–
CCN[C@H](CN[C@H](CN[C@H](CN[C@H](CN[C@@H](CN[C@@H](CN)CO)[C@@H](C)O)Cc1ccccc1)Cc1ccccc1)Cc1ccc(O)cc1)Cc1ccc(O)cc1,90 nM,–,–
CCN[C@H](CN[C@H](CN[C@H](CN[C@H](CN[C@@H](CN[C@H](CN)Cc1ccccc1)[C@@H](C)O)Cc1ccccc1)Cc1ccccc1)Cc1ccc(O)cc1)Cc1ccc(O)cc1,108 nM,–,–
CCN[C@H](CN[C@H](CN[C@@H](Cc1ccccc1)CN1CCC[C@H]1CN[C@H](CN[C@H](CN)Cc1ccc(O)cc1)Cc1ccc(O)cc1)Cc1ccc(O)cc1)Cc1ccc(O)cc1,27 nM,–,–
CCN[C@H](CN[C@H](CN[C@H](CN[C@H](CN[C@H](CN[C@H](CN)CCSC)Cc1ccc(O)cc1)Cc1ccccc1)Cc1ccc(O)cc1)Cc1ccc(O)cc1)Cc1ccc(O)cc1,260 nM,–,–
CCN[C@H](CN[C@H](CN[C@H](CN[C@H](CN[C@H](CN[C@H](CN)Cc1ccccc1)Cc1ccc(O)cc1)Cc1ccccc1)Cc1ccccc1)Cc1ccc(O)cc1)Cc1ccc(O)cc1,176 nM,–,–
CCN[C@H](CN[C@H](CN[C@H](CN[C@H](CN[C@H](CN[C@H](CN)Cc1ccc(O)cc1)Cc1ccc(O)cc1)Cc1ccccc1)Cc1ccccc1)Cc1ccc(O)cc1)Cc1ccc(O)cc1,95 nM,–,–
CCN[C@H](CN[C@H](CN[C@@H](Cc1ccccc1)CN1CCC[C@H]1CN[C@@H](CN[C@H](CN)CCSC)[C@@H](C)O)Cc1ccc(O)cc1)Cc1ccc(O)cc1,14 nM,–,–
CCN[C@H](CN[C@H](CN[C@H](CN[C@H](CN[C@H](CN[C@@H](CN)CO)Cc1ccc(O)cc1)Cc1ccccc1)Cc1ccc(O)cc1)Cc1ccc(O)cc1)Cc1ccc(O)cc1,345 nM,–,–
CCN[C@H](CN[C@H](CN[C@@H](Cc1ccc(O)cc1)CN1CCC[C@H]1CN[C@H](CN[C@H](CN)Cc1ccccc1)Cc1ccc(O)cc1)Cc1ccc(O)cc1)Cc1ccc(O)cc1,83 nM,–,–
CCN[C@H](CN[C@H](CN[C@@H](Cc1ccccc1)CN1CCC[C@H]1CN[C@@H](CN[C@H](CN)Cc1ccc(O)cc1)[C@@H](C)O)Cc1ccc(O)cc1)Cc1ccc(O)cc1,20 nM,–,–
CCN[C@H](CN[C@H](CN[C@@H](Cc1ccc(O)cc1)CN1CCC[C@H]1CN[C@H](CN[C@H](CN)CO)Cc1ccc(O)cc1)Cc1ccc(O)cc1)Cc1ccc(O)cc1,89 nM,–,–
CCN[C@H](CN[C@H](CN[C@@H](Cc1ccc(O)cc1)CN1CCC[C@H]1CN[C@@H](CN1CCC[C@H]1CN)[C@@H](C)O)Cc1ccc(O)cc1)Cc1ccc(O)cc1,41 nM,–,–
CN[C@@H](Cc1ccc(O)cc1)CN(C)[C@H](CNCc1ccccc1)Cc1ccc(O)cc1,–,3850 nM,3970 nM
CCN[C@H](CN[C@H](CN[C@H](CN[C@H](CN[C@@H](Cc1ccc(O)cc1)CN1CCC[C@H]1CN)Cc1ccccc1)Cc1ccccc1)Cc1ccc(O)cc1)Cc1ccc(O)cc1,48 nM,–,–
NC[C@H](Cc1ccc(O)cc1)NC[C@@H](N)Cc1ccc(O)cc1,6040 nM,32200 nM,–
CCN[C@H](CN[C@H](CN[C@@H](Cc1ccccc1)CN1CCC[C@H]1CN[C@H](CN[C@H](CN)Cc1ccccc1)Cc1ccc(O)cc1)Cc1ccc(O)cc1)Cc1ccc(O)cc1,27 nM,–,–
CCN[C@H](CN[C@H](CN[C@H](CN[C@H](CN[C@H](CN[C@H](CN)CCSC)Cc1ccc(O)cc1)Cc1ccccc1)Cc1ccccc1)Cc1ccc(O)cc1)Cc1ccc(O)cc1,126 nM,–,–
